Results: ChEMBL document CHEMBL1146548, “New anthracene derivatives from Coussarea macrophylla” (J Nat Prod, 2003)

Legend:
Staphylococcus aureus = experiment: Antibacterial activity against Staphylococcus aureus at 19 ug/disk by standard filter disk assay; assay type: functional; details: read-out: IZ
Artemia salina = experiment: Toxicity against Artemia salina; assay type: organism-based; details: in vivo

SMILES	zone of inhibition at 19 µg/disc (Staphylococcus aureus)	LC50 (Artemia salina)
COc1c(C=O)cc(OC)c2c(OC)c3ccccc3cc12	12 mm	> 280 ppm
COCc1c(OC)cc2c(c1OC)C(=O)c1ccccc1C2=O	–	> 280 ppm
